In US20100048950A1 (BOEHRINGER INGELHEIM INTERNATIONAL GMBH, priority 2007, published 2010):

Each compound was assayed against T1, human glucocorticoid receptor (GR) complex (Homo sapiens, UniProt P04150) (assay: Glucocorticoid receptor competitive binding assay (fluorescence polarization)). Conditions: competition with TAMRA-labeled dexamethasone, read-out: potent activity (IC50) in the GR binding assay.
T1 construct: made in house; host or cells: insect expression system (baculovirus lysate)
T1 sequence (P04150 1-777): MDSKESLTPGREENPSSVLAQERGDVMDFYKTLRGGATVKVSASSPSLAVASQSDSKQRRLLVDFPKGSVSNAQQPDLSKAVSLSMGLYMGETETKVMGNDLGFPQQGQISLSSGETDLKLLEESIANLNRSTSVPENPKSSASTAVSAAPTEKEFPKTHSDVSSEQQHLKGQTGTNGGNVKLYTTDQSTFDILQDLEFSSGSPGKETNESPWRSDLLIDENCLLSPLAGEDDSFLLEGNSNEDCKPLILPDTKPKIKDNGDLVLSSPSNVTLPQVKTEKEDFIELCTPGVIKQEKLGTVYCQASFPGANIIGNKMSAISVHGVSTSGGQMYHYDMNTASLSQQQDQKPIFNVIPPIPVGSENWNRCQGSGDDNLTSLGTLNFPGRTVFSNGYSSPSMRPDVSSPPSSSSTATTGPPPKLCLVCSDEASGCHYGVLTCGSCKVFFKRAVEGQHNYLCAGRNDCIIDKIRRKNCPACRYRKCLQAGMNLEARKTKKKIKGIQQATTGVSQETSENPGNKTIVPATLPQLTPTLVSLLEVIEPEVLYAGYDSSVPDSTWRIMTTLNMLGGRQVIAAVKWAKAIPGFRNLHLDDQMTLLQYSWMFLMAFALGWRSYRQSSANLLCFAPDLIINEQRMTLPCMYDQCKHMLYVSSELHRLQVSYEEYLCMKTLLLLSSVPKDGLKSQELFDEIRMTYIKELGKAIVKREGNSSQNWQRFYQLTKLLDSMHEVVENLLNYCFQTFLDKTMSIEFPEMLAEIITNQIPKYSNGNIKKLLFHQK
Method: Compounds of the invention were evaluated for binding to the steroid receptor by a fluorescence polarization competitive binding assay. Detailed descriptions for preparation of recombinant glucocorticoid receptor (GR) complex used in the assay is described in U.S. Patent Application Publication No. US 2003/0017503, filed May 20, 2002, and incorporated herein by reference in its entirety. Preparation of the tetramethylrhodamine (TAMRA)-labeled dexamethasone probe was accomplished using a standard literature procedure (M. Pons et al., J. Steroid Biochem., 1985, 22, pp. 267-273).
The affinity of the probe for the steroid receptor was then determined in a titration experiment. The fluorescence polarization value of the probe in assay buffer was measured on an SLM-8100 fluorometer using the excitation and emission maximum values described above. Aliquots of expression vector lysate were added and fluorescence polarization was measured after each addition until no further change in polarization value was observed. Non-linear least squares regression analysis was used to calculate the dissociation constant of the probe from the polarization values obtained for lysate binding to the probe.
This assay uses fluorescence polarization (FP) to quantitate the ability of test compounds to compete with tetramethylrhodamine (TAMRA)-labeled dexamethasone for binding to a human glucocorticoid receptor (GR) complex prepared from an insect expression system. The assay buffer was: 10 mM TES, 50 mM KCl, 20 mM Na2MoO4.2H2O, 1.5 mM EDTA, 0.04% w/v CHAPS, 10% v/v glycerol, 1 mM dithiothreitol, pH 7.4. Test compounds were dissolved to 1 mM in neat DMSO and then further diluted to 10× assay concentration in assay buffer supplemented with 10% v/v DMSO. Test compounds were serially diluted at 10× assay concentrations in 10% DMSO-containing buffer in 96-well polypropylene plates. Binding reaction mixtures were prepared in 96-well black Dynex microtiter plates by sequential addition of the following assay components to each well: 15 μL of 10× test compound solution, 85 μL of GR-containing baculovirus lysate diluted 1:170 in assay buffer, and 50 μL of 15 nM TAMRA-labeled dexamethasone. Positive controls were reaction mixtures containing no test compound; negative controls (blanks) were reaction mixtures containing 0.7 μM to 2 μM dexamethasone. The binding reactions were incubated for 1 hour at room temperature and then read for fluorescence polarization in the LJL Analyst set to 550 nm excitation and 580 nm emission, with the Rhodamine 561 dichroic mirror installed. IC50 values were determined by iterative non-linear curve fitting of the FP signal data to a 4-parameter logistic equation.

IC50, ≤ 100 nM:
Cc1cc(C)c(S(=O)(=O)NC(CNc2cc(Cl)ccc2Cl)C(F)(F)F)c(C)c1 (stereo not shown) [N-{1-[(2,5-Dichlorophenylamino)methyl]-2,2,2-trifluoroethyl}-2,4,6-trimethylbenzenesulfonamide], CC[C@@H](CNc1cccc2ccccc12)NS(=O)(=O)c1c(C)cc(C)cc1C [2,4,6-Trimethyl-N—[(S)-1-(naphthalen-1-ylaminomethyl)propyl]benzenesulfonamide], Cc1cc(C)c(S(=O)(=O)NC(CNc2cccc(C#N)c2)C(F)(F)F)c(C)c1 (stereo not shown) [N-{1-[(3-Cyanophenylamino)methyl]-2,2,2-trifluoroethyl}-2,4,6-trimethylbenzenesulfonamide], COc1ccc(C(F)(F)F)cc1NCC(NS(=O)(=O)c1c(C)cc(C)cc1C)C(F)(F)F (stereo not shown) [2,4,6-Trimethyl-N-{2,2,2-trifluoro-1-[(2-methoxy-5-trifluoromethylphenylamino)methyl]ethyl}benzenesulfonamide], Cc1cc(C)c(S(=O)(=O)NC(CSc2cccc(Cl)c2)C(F)(F)F)c(C)c1 (stereo not shown) [N-[1-(3-Chlorophenylsulfanylmethyl)-2,2,2-trifluoroethyl]-2,4,6-trimethylbenzenesulfonamide], Cc1cc(C)c(S(=O)(=O)NC(CSc2cc(Cl)ccc2Cl)C(F)(F)F)c(C)c1 (stereo not shown) [N-[1-(2,5-Dichlorophenylsulfanylmethyl)-2,2,2-trifluoroethyl]-2,4,6-trimethylbenzenesulfonamide], Cc1cc(C)c(S(=O)(=O)NC(CSc2cccc(Br)c2)C(F)(F)F)c(C)c1 (stereo not shown) [N-[1-(3-Bromophenylsulfanylmethyl)-2,2,2-trifluoroethyl]-2,4,6-trimethylbenzenesulfonamide], COc1ccccc1SCC(NS(=O)(=O)c1c(C)cc(C)cc1C)C(F)(F)F (stereo not shown) [2,4,6-Trimethyl-N-[2,2,2-trifluoro-1-(2-methoxyphenylsulfanylmethyl)ethyl]benzenesulfonamide], Cc1cc(C)c(S(=O)(=O)NC(CNc2ccc(C)cc2F)C(F)(F)F)c(C)c1 (stereo not shown) [2,4,6-Trimethyl-N-{2,2,2-trifluoro-1-[(2-fluoro-4-methylphenylamino)methyl]ethyl}benzenesulfonamide], Cc1cc(C)c(S(=O)(=O)NC(CSc2ccccc2)C(F)(F)F)c(C)c1 (stereo not shown) [2,4,6-Trimethyl-N-(2,2,2-trifluoro-1-phenylsulfanylmethylethyl)benzenesulfonamide], Cc1cc(C)c(S(=O)(=O)NC(CSc2ccc(F)cc2)C(F)(F)F)c(C)c1 (stereo not shown) [2,4,6-Trimethyl-N-[2,2,2-trifluoro-1-(4-fluorophenylsulfanylmethyl)ethyl]benzenesulfonamide], Cc1ccc(OCC(NS(=O)(=O)c2c(C)cc(C)cc2C)C(F)(F)F)cc1 (stereo not shown) [2,4,6-Trimethyl-N-(2,2,2-trifluoro-1-p-tolyloxymethylethyl)benzenesulfonamide], Cc1cc(C)c(S(=O)(=O)NC(CNc2cccc(C(F)(F)F)c2)C(F)(F)F)c(C)c1 (stereo not shown) [2,4,6-Trimethyl-N-{2,2,2-trifluoro-1-[(3-trifluoromethylphenylamino)methyl]ethyl}benzenesulfonamide], Cc1cccc(NCC(NS(=O)(=O)c2c(C)cc(C)cc2C)C(F)(F)F)c1 (stereo not shown) [2,4,6-Trimethyl-N-[2,2,2-trifluoro-1-(m-tolylaminomethyl)ethyl]benzenesulfonamide], COc1ccc(NCC(NS(=O)(=O)c2c(C)cc(C)cc2C)C(F)(F)F)c(C)c1 (stereo not shown) [2,4,6-Trimethyl-N-{2,2,2-trifluoro-1-[(4-methoxy-2-methylphenylamino)methyl]ethyl}benzenesulfonamide], Cc1cc(C)cc(NCC(NS(=O)(=O)c2c(C)cc(C)cc2C)C(C)C)c1 (stereo not shown) [N-{1-[(3,5-Dimethylphenylamino)methyl]-2-methylpropyl}-2,4,6-trimethylbenzenesulfonamide], Cc1cc(C)c(S(=O)(=O)NC(COc2ccc(C#N)cc2)C(F)(F)F)c(C)c1 (stereo not shown) [N-[1-(4-Cyanophenoxymethyl)-2,2,2-trifluoroethyl]-2,4,6-trimethylbenzenesulfonamide], Cc1cc(C)c(S(=O)(=O)NC(CN(C)c2ccccc2OC(F)(F)F)C(F)(F)F)c(C)c1 (stereo not shown) [2,4,6-Trimethyl-N-(2,2,2-trifluoro-1-{[methyl-(2-trifluoromethoxyphenyl)amino]methyl}-ethyl)benzenesulfonamide], Cc1cc(C)c(S(=O)(=O)NC(CNc2c(F)cc(F)cc2F)C(F)(F)F)c(C)c1 (stereo not shown) [2,4,6-Trimethyl-N-{2,2,2-trifluoro-1-[(2,4,6-trifluorophenylamino)methyl]ethyl}benzenesulfonamide], COc1cccc(SCC(NS(=O)(=O)c2c(C)cc(C)cc2C)C(F)(F)F)c1 (stereo not shown) [2,4,6-Trimethyl-N-[2,2,2-trifluoro-1-(3-methoxyphenylsulfanylmethyl)ethyl]benzenesulfonamide], Cc1cc(C)c(S(=O)(=O)NC(CNc2cccc3c2CCCC3)C(F)(F)F)c(C)c1 (stereo not shown) [2,4,6-Trimethyl-N-{2,2,2-trifluoro-1-[(5,6,7,8-tetrahydronaphthalen-1-ylamino)methyl]ethyl}benzenesulfonamide], Cc1cc(C)c(S(=O)(=O)NC(COc2ccc(C#N)c(Cl)c2)C(F)(F)F)c(C)c1 (stereo not shown) [N-[1-(3-Chloro-4-cyanophenoxymethyl)-2,2,2-trifluoroethyl]-2,4,6-trimethylbenzenesulfonamide], CCC(CSc1ccccc1)NS(=O)(=O)c1c(C)cc(C)cc1C (stereo not shown) [2,4,6-Trimethyl-N-(1-phenylsulfanylmethylpropyl)benzenesulfonamide], Cc1cc(C)c(S(=O)(=O)NC(CNc2ccc(F)cc2F)C(F)(F)F)c(C)c1 (stereo not shown) [N-{1-[(2,4-Difluorophenylamino)methyl]-2,2,2-trifluoroethyl}-2,4,6-trimethylbenzenesulfonamide], Cc1cc(C)c(S(=O)(=O)NC(COc2cccc(C#N)c2)C(F)(F)F)c(C)c1 (stereo not shown) [N-[1-(3-Cyanophenoxymethyl)-2,2,2-trifluoroethyl]-2,4,6-trimethylbenzenesulfonamide], Cc1cc(C)c(S(=O)(=O)NC(COc2ccc(Cl)cc2)C(F)(F)F)c(C)c1 (stereo not shown), Cc1cc(C)c(S(=O)(=O)NC(CNc2c(Cl)cc(Cl)cc2Cl)C(F)(F)F)c(C)c1 (stereo not shown) [2,4,6-Trimethyl-N-{2,2,2-trifluoro-1-[(2,4,6-trichlorophenylamino)methyl]ethyl}benzenesulfonamide], Cc1cc(C)c(S(=O)(=O)NC(COc2ccc(Cl)cc2Cl)C(F)(F)F)c(C)c1 (stereo not shown) [N-[1-(2,4-Dichlorophenoxymethyl)-2,2,2-trifluoroethyl]-2,4,6-trimethylbenzenesulfonamide]
